Reference: patent US20170275270A1, “BENZYL SUBSTITUTED INDAZOLES” (Bayer Pharma Aktiengesellschaft, priority 2014, published 2017)
Like-named read-outs stand apart in the source and are kept apart here.

Assays:
[1] = test system: HeLa; test: Proliferation assay (HeLa cell line); conditions: Homo sapiens, 96 h, read-out: Biological Assay 2: Proliferation assay (HeLa cell line) median IC50;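 further: crystal violet staining of cell number, scaled between a plate stained before dosing (0%) and cells left untreated (100%), compounds tested at 0.001-10 µM, IC50 via 4-parameter fit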
[2] = test system: HeLa human cervical tumor cells; test: Proliferation assay (HeLa+Paclitaxel); conditions: read-out: Biological Assay 3: HeLa + Paclitaxel IC50, 3 nM paclitaxel, crystal violet;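 further: compounds at 0.001-10 µM added 4 h after paclitaxel, 92 h exposure, absorbance normalized to zero-point plate (0%) and untreated cells (100%), IC50 from 4-parameter fit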
[3] = target: T1, catalytic domain of human Bub1 (amino acids 704-1085) (Homo sapiens, UniProt O43683); test: Bub1 kinase assay (TR-FRET); format: biochemical
T1 construct: catalytic domain of human Bub1 (amino acids 704-1085); His6 (N); made in house; host or cells: Hi5 insect cells
T1 sequence (O43683 704-1085): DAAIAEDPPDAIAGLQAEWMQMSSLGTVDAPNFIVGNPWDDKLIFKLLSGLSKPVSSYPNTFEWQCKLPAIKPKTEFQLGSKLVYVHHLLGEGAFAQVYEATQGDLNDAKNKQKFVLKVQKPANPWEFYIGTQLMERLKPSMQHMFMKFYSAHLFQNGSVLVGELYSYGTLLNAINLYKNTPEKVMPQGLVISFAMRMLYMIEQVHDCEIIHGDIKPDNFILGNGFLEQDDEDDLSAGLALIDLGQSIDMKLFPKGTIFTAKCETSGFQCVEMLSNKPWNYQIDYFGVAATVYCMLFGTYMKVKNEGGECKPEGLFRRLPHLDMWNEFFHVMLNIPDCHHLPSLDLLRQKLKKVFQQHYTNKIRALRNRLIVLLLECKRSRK
In short: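 TR-FRET read-out (Eu-anti-mouse IgG/anti-phosphoserine antibody to streptavidin-XL665 on biotinylated peptide) after EDTA stop and 1 h complex formation at 22° C. Kinase reaction ran 60 min at 22° C with 1:3.4 serial dilutions from 2 mM DMSO stocks. IC50 from 4-parameter logistic fit of normalized inhibition.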

[4] = target: Bub1 (Homo sapiens, UniProt O43683); test: Formation-Assay: phosphorylation status of histone 2A by inhibition of kinase activity of Bub1; format: cell-based; conditions: Biological Assay 4.1: H2A Formation IC50, co-treatment with Nocodazole 1 μg/ml, 16 h
Chain of Bub1 (O43683 whole entry): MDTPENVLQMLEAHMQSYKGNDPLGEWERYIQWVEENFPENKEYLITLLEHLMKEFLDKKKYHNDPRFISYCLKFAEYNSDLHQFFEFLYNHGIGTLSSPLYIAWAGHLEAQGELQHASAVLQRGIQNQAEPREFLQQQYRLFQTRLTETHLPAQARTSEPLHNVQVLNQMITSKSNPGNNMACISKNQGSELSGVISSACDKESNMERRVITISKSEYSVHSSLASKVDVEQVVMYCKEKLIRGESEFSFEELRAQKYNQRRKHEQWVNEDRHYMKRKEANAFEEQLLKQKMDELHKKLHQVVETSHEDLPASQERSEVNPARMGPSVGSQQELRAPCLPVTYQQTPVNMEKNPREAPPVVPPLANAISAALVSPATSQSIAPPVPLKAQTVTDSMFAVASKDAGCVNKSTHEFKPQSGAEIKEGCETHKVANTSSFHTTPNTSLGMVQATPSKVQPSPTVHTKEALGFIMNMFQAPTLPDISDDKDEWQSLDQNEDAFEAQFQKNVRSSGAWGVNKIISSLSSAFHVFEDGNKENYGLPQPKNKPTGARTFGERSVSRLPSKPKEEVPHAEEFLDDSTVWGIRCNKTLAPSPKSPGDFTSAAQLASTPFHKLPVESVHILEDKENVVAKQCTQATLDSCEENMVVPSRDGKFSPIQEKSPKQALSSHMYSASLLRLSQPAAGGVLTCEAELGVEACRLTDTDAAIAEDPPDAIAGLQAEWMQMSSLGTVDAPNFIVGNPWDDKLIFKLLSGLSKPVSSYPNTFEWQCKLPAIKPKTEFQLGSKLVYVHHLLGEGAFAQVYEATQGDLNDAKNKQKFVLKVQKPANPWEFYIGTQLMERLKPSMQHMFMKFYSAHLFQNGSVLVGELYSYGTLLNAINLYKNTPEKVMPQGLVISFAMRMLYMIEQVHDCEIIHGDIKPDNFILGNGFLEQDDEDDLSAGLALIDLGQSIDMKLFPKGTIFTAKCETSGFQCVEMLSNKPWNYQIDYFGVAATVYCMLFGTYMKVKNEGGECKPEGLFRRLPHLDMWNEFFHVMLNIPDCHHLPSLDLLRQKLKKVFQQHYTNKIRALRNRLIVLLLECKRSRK
In short: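 Cells co-treated 16 h with Nocodazole (1 μg/ml) and compound (3 nM–10 μM), then fixed and immunostained for phospho-H2A, read by infrared imaging (800 nm) normalised to cell stain (700 nm). Nocodazole-only set as 100%, untreated cells as 0%.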

[5] = Biological Assay 1: Bub1 kinase assay median IC50, 10 μM ATP
[6] = 10 μM ATP, read-out: Biological Assay 1: Bub1 kinase assay median IC50

| Structure (SMILES) | IC50 [1] | IC50 [2] | IC50 [3, 5] | IC50 [4] | IC50 [3, 6] |
| --- | --- | --- | --- | --- | --- |
| CCOc1cc(F)c(Cn2nc(-c3nc4c(c(Nc5ccncc5)n3)CCNC4)c3ccccc32)c(F)c1 [Example 2-18-1, 2-[1-(4-ethoxy-2,6-difluorobenzyl)-1H-indazol-3-yl]-N-(pyridin-4-yl)-5,6,7,8-tetrahydropyrido[3,4-d]pyrimidin-4-amine] | 1700 nM | 160 nM | 6.1 nM | 20 nM |  |
| CCOc1cc(F)c(Cn2nc(-c3nc4c(c(Nc5ccncc5)n3)CSC4)c3ccccc32)c(F)c1 [Example 2-19-1, 2-[1-(4-ethoxy-2,6-difluorobenzyl)-1H-indazol-3-yl]-N-(pyridin-4-yl)-5,7-dihydrothieno[3,4-d]pyrimidin-4-amine] | 1200 nM | 350 nM |  | 350 nM | 14 nM |
| CCOc1cc(F)c(Cn2nc(-c3nc4c(c(Nc5ccnc(C)c5)n3)CSC4)c3ccccc32)c(F)c1 [Example 2-19-4, 2-[1-(4-ethoxy-2,6-difluorobenzyl)-1H-indazol-3-yl]-N-(2-methylpyridin-4-yl)-5,7-dihydrothieno[3,4-d]pyrimidin-4-amine] | 1200 nM | 130 nM |  | 45 nM | 68 nM |
| CCOc1cc(F)c(Cn2nc(-c3nc4c(c(Nc5ccnc(C(F)F)c5)n3)CCC4)c3ccccc32)c(F)c1 [Example 2-19-8, N-[2-(difluoromethyl)pyridin-4-yl]-2-[1-(4-ethoxy-2,6-difluorobenzyl)-1H-indazol-3-yl]-6,7-dihydro-5H-cyclopenta[d]pyrimidin-4-amine] | > 10000 nM | 440 nM |  | 2500 nM | 8.1 nM |
| CCOc1cc(F)c(Cn2nc(-c3nc(CN4CCOCC4)cc(Nc4ccnc(NC(=O)C5CC5)c4)n3)c3ccccc32)c(F)c1 [Example 2-19-11, N-[4-({2-[1-(4-ethoxy-2,6-difluorobenzyl)-1H-indazol-3-yl]-6-(morpholin-4-ylmethyl)pyrimidin-4-yl}amino)pyridin-2-yl]cyclopropanecarboxamide] | 1800 nM | 130 nM |  | 180 nM | 9.1 nM |

The remaining lines, values ahead:

| IC50 [1] | IC50 [2] | IC50 [3, 5] | IC50 [4] | IC50 [3, 6] | Structure (SMILES) |
| --- | --- | --- | --- | --- | --- |
| 2100 nM | 610 nM | 8.9 nM | 340 nM |  | CCOc1cc(F)c(Cn2nc(-c3nc4c(c(Nc5ccnc(NC(C)=O)c5)n3)CSC4)c3ccccc32)c(F)c1 [Example 2-19-3, N-[4-({2-[1-(4-ethoxy-2,6-difluorobenzyl)-1H-indazol-3-yl]-5,7-dihydrothieno[3,4-d]pyrimidin-4-yl}amino)pyridin-2-yl]acetamide] |
| > 10000 nM | 540 nM |  | 21 nM | 57 nM | CCOc1cc(F)c(Cn2nc(-c3nc4c(c(Nc5ccnc(OC)c5)n3)CCC4)c3ccccc32)c(F)c1 [Example 2-19-7, 2-[1-(4-ethoxy-2,6-difluorobenzyl)-1H-indazol-3-yl]-N-(2-methoxypyridin-4-yl)-6,7-dihydro-5H-cyclopenta[d]pyrimidin-4-amine] |
| 1300 nM | 75 nM |  | 18 nM | 23 nM | CCOc1cc(F)c(Cn2nc(-c3nc(CN4CCOCC4)cc(Nc4ccnc(C)c4)n3)c3ccccc32)c(F)c1 [Example 2-19-9, 2-[1-(4-ethoxy-2,6-difluorobenzyl)-1H-indazol-3-yl]-N-(2-methylpyridin-4-yl)-6-(morpholin-4-ylmethyl)pyrimidin-4-amine] |
| 4000 nM | 250 nM |  | 63 nM | 11 nM | CCOc1cc(F)c(Cn2nc(-c3nc(CN4CCOCC4)cc(Nc4ccncc4F)n3)c3ccccc32)c(F)c1 [Example 2-19-12, 2-[1-(4-ethoxy-2,6-difluorobenzyl)-1H-indazol-3-yl]-N-(3-fluoropyridin-4-yl)-6-(morpholin-4-ylmethyl)pyrimidin-4-amine] |
